Assay results reported in patent publication US20220380357A1, “TETRAHYDROISOQUINOLINE COMPOUNDS” (ALLINKY BIOPHARMA, priority 2019, published 2022).
pIC50: −log10 of the molar value. Where two headings read alike, the source gives them in different places.

Columns and labels:
Assay type in all cases: cell-based
[1] = tested on: H358. non-small cell lung cancer line bearing KRas^G12C oncogenic mutation; experiment: Antiproliferative MTS assay, H358 cells; conditions: compounds 1-23, 47-52 and Reference Example 1 median of experiments, 24-46 estimations and/or preliminary results, read-out: IC50 values: cell proliferation inhibition, H358
Method: Cell line #2: H358. non-small cell lung cancer line bearing KRas^G12C oncogenic mutation
(§1) Cell lines were cultured in DMEM or RPMI-1640 supplemented with FBS 10%. In order to assess the antiproliferative effect of compounds, cells were seeded at a density of 1.8×10^3, 6.2×10^3, 7.8×10^3, 21×10^3 and 2×10^3 cells/cm^2, respectively, in tissue culture microplates and were incubated in humidified atmosphere at 5% CO2. 24 h later, compounds dissolved in DMSO 100% were added for different final concentrations ranging between 0.1 and 50 μM for a final DMSO concentration of 0.5% and the plates were incubated for another 72 h. After incubation, proliferation was quantified using CellTiter 96® Aqueous Non-Radioactive Cell Proliferation Assay-MTS (Promega #G5421) following manufacturer instructions. Amount of 490 nm absorbance is directly proportional to the number of living cells. Absorbance was recorded with a BMG Fluostar Optima Microplate Reader and normalized to control with vehicle.

[2] = tested on: PANC-1. epithelioid carcinoma of the pancreas cell line bearing KRas^G12D oncogenic mutation; experiment: Antiproliferative MTS assay, PANC-1 cells; conditions: compounds 1-23 and 47-52 median of experiments, 24-46 estimations and/or preliminary results, read-out: IC50 values: cell proliferation inhibition, Panc-1
Method: Cell line #3: PANC-1. epithelioid carcinoma of the pancreas cell line bearing KRas^G12D oncogenic mutation
as §1

[3] = tested on: RPMI. myeloma cell line bearing KRas^G12A oncogenic mutation; experiment: Antiproliferative MTS assay, RPMI cells; conditions: 72 h, compounds 1-23 and 47-52 median of experiments, 24-46 estimations and/or preliminary results, read-out: IC50 values: cell proliferation inhibition, RPMI
Method: Cell line #4: RPMI. myeloma cell line bearing KRas^G12A oncogenic mutation
as §1

[4] = tested on: A549. Lung carcinoma cell line bearing KRas^G12S oncogenic mutation; experiment: Antiproliferative MTS assay, A549 cells; conditions: Homo sapiens, A549, 72 h, compounds 1-23 and 47-52 median of experiments, 24-46 estimations and/or preliminary results, read-out: IC50 values: cell proliferation inhibition, A549
Method: Cell line #1: A549. Lung carcinoma cell line bearing KRas^G12S oncogenic mutation
as §1

Structure (SMILES): CCNC(=O)N1CCc2cc(OC)c(OCCc3ccc(OC)c(N)c3)cc2C1c1ccc(C(=O)OC)cc1C (centres unmarked) [Reference Example 1, reference compound]
- pIC50 ([1]; Homo sapiens, NCI-H358, 72 h): 6.52

Structure (SMILES): COc1ccc(CCOc2cc3c(cc2OC)CCN(C(=O)NCc2ccon2)C3c2ccc(C(F)(F)F)cc2C)cc1N (centres unmarked) [Compound 20]
- pIC50 ([1]; Homo sapiens, NCI-H358, 72 h): 6.40
- pIC50 ([2]; Homo sapiens, PANC-1, 72 h): 6.40
- pIC50 [3]: 6.70
- pIC50 [4]: 6.00

Structure (SMILES): COc1cc(CCOc2cc3c(cc2OC)CCN(C(=O)NCc2cocn2)C3c2ccc(Cl)cc2C)ccc1N (centres unmarked) [Compound 37]
- pIC50 ([1]; Homo sapiens, NCI-H358, 72 h): 6.40
- pIC50 ([2]; Homo sapiens, PANC-1, 72 h): 6.40
- pIC50 [3]: 7.00
- pIC50 [4]: 5.82

Structure (SMILES): COc1ccc(C2c3cc(OCCc4ccc(OC)c(N)c4)c(OC)cc3CCN2C(=O)NCc2ccon2)c(C)c1 (centres unmarked) [Compound 21]
- pIC50 ([1]; Homo sapiens, NCI-H358, 72 h): 6.70
- pIC50 ([2]; Homo sapiens, PANC-1, 72 h): 6.70
- pIC50 [3]: 7.00
- pIC50 [4]: 6.05

Structure (SMILES): COc1ccc(CCOc2cc3c(cc2OC)CCN(C(=O)NCC(F)(F)F)C3c2ccc(F)cc2C)cc1N (centres unmarked) [Compound 27]
- pIC50 ([1]; Homo sapiens, NCI-H358, 72 h): 6.52
- pIC50 ([2]; Homo sapiens, PANC-1, 72 h): 6.52
- pIC50 [3]: 7.00
- pIC50 [4]: 6.05

Structure (SMILES): COc1ccc(C2c3cc(OCCc4ccc(N)c(OC)c4)c(OC)cc3CCN2C(=O)NCc2cocn2)c(C)c1 (centres unmarked) [Compound 35]
- pIC50 ([1]; Homo sapiens, NCI-H358, 72 h): 6.40
- pIC50 ([2]; Homo sapiens, PANC-1, 72 h): 6.40
- pIC50 [3]: 6.52
- pIC50 [4]: 6.00

Structure (SMILES): CCNC(=O)N1CCc2cc(OC)c(OCCc3ccc(N)c(OC)c3)cc2C1c1ccc(C(F)(F)F)cc1C (centres unmarked) [Compound 29]
- pIC50 ([1]; Homo sapiens, NCI-H358, 72 h): 6.30
- pIC50 ([2]; Homo sapiens, PANC-1, 72 h): 6.40
- pIC50 [3]: 6.70
- pIC50 [4]: 5.82

Structure (SMILES): CCNC(=O)N1CCc2cc(OC)c(OCCc3ccc(N)c(OC)c3)cc2C1c1ccc(F)cc1C (centres unmarked) [Compound 31]
- pIC50 ([1]; Homo sapiens, NCI-H358, 72 h): 6.30
- pIC50 ([2]; Homo sapiens, PANC-1, 72 h): 6.40
- pIC50 [3]: 7.00
- pIC50 [4]: < 5.70

Structure (SMILES): CCNC(=O)N1CCc2cc(OC)c(OCCc3ccc(N)c(OC)c3)cc2C1c1ccc(Cl)cc1C (centres unmarked) [Compound 14]
- pIC50 ([1]; 72 h): 6.15
- pIC50 ([2]; 72 h): 6.30
- pIC50 [3]: 6.40
- pIC50 [4]: 5.80

Structure (SMILES): COc1ccc(C2c3cc(OCCc4ccc(OC)c(N)c4)c(OC)cc3CCN2C(=O)NCC(F)(F)F)c(C)c1 (centres unmarked) [Compound 26]
- pIC50 ([1]; Homo sapiens, NCI-H358, 72 h): 6.40
- pIC50 ([2]; Homo sapiens, PANC-1, 72 h): 6.30
- pIC50 [3]: 6.70
- pIC50 [4]: 6.00

Structure (SMILES): COc1ccc(C2c3cc(OCCc4ccc(N)c(OC)c4)c(OC)cc3CCN2C(=O)NCC(F)(F)F)c(C)c1 (centres unmarked) [Compound 45]
- pIC50 ([1]; Homo sapiens, NCI-H358, 72 h): 6.22
- pIC50 ([2]; Homo sapiens, PANC-1, 72 h): 6.52
- pIC50 [3]: 6.70
- pIC50 [4]: 6.00

Structure (SMILES): COc1cc(CCOc2cc3c(cc2OC)CCN(C(=O)NCc2cocn2)C3c2ccc(C(F)(F)F)cc2C)ccc1N (centres unmarked) [Compound 34]
- pIC50 ([1]; Homo sapiens, NCI-H358, 72 h): 6.30
- pIC50 ([2]; Homo sapiens, PANC-1, 72 h): 6.40
- pIC50 [3]: 7.00
- pIC50 [4]: 5.92

Structure (SMILES): COc1cc(CCOc2cc3c(cc2OC)CCN(C(=O)NCc2ccon2)C3c2ccc(C)cc2C)ccc1N (centres unmarked) [Compound 38]
- pIC50 ([1]; Homo sapiens, NCI-H358, 72 h): 6.30
- pIC50 ([2]; Homo sapiens, PANC-1, 72 h): 6.40
- pIC50 [3]: 6.70
- pIC50 [4]: 5.82

Structure (SMILES): COc1cc(CCOc2cc3c(cc2OC)CCN(C(=O)NCC(F)(F)F)C3c2ccc(C(F)(F)F)cc2C)ccc1N (centres unmarked) [Compound 44]
- pIC50 ([1]; Homo sapiens, NCI-H358, 72 h): 6.10
- pIC50 ([2]; Homo sapiens, PANC-1, 72 h): 6.30
- pIC50 [3]: 6.52
- pIC50 [4]: < 5.70

Structure (SMILES): COc1cc(CCOc2cc3c(cc2OC)CCN(C(=O)NCc2cocn2)C3c2ccc(C)cc2C)ccc1N (centres unmarked) [Compound 33]
- pIC50 ([1]; Homo sapiens, NCI-H358, 72 h): 6.10
- pIC50 ([2]; Homo sapiens, PANC-1, 72 h): 6.22
- pIC50 [3]: 6.15
- pIC50 [4]: < 5.70

Structure (SMILES): COc1ccc(CCOc2cc3c(cc2OC)CCN(C(=O)NCC(F)(F)F)C3c2ccc(Cl)cc2C)cc1N (centres unmarked) [Compound 28]
- pIC50 ([1]; Homo sapiens, NCI-H358, 72 h): 6.52
- pIC50 ([2]; Homo sapiens, PANC-1, 72 h): 6.70
- pIC50 [3]: 7.00
- pIC50 [4]: 6.10

Structure (SMILES): CCNC(=O)N1CCc2cc(OC)c(OCCc3ccc(OC)c(N)c3)cc2C1c1ccc(F)cc1C (centres unmarked) [Compound 12]
- pIC50 ([1]; Homo sapiens, NCI-H358, 72 h): 6.70
- pIC50 ([2]; Homo sapiens, PANC-1, 72 h): 7.00
- pIC50 [3]: 7.00
- pIC50 [4]: 6.05
